Reference: article PMC13252604, “First Generation Proteolysis Targeting Chimeras (PROTACs) for the Treatment of Progeria” (Advanced Science, 2026)

Columns and labels:
[1] = biological target: T1, progerin (Mus musculus, UniProt P48678, DEL608-657); assay: Cellular thermal shift assay; format: binding
T1 construct: endogenous in cells; host or cells: immortalized (SV40-LT) fibroblasts from Lmna G609G/G609G mice
T1 sequence (P48678 with tags, fused parts or gaps DEL608-657 limits assumed): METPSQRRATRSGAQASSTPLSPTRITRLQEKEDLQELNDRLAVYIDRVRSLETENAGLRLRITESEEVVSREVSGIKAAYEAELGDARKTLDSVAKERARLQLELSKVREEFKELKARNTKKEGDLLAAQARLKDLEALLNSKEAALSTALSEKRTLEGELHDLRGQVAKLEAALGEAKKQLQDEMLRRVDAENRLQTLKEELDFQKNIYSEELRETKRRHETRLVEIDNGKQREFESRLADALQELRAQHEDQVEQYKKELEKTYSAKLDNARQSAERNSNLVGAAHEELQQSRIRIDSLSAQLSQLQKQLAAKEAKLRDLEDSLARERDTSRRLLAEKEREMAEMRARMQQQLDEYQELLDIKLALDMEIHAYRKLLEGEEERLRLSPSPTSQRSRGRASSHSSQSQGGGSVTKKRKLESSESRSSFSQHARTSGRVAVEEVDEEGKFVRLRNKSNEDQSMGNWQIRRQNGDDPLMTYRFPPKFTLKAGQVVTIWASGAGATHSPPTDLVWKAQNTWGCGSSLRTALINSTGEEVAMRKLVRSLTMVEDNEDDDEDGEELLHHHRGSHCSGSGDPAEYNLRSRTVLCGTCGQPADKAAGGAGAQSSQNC
Protocol: Vehicle .LM123L T-!=>(%C" V,!=> […]
50- !!!!!C#' -4TT8VLamin C -4T:T; (%$$-4-:?5T '()*+
!!!!!E#)*+,- ,V4:-β-Actin ,?4?V ,848; D(%
37- !!!!!*+,- 84;66L<-,V V4-;VL<-,? ?4T-?L<-,8 ,-)*+ […]
Supporting Figure S2. Ternary complex formation, progerin engagement and global selectivity of compound 2. […]
(C) Thermal denaturation curves of progerin in the presence of vehicle (black) or compound 2 at 10 µM (red, DTm=0.7±0.1 °C) or 25 µM (blue, […]
of compound 2 (IC50=7±1 µM). Curves are generated and fitted using sigmoidal dose-response non-linear regression curve fit in GraphPad Prism. Symbols and associated error bars (when not enclosed by the symbol) represent average±SD from two independent experiments carried out in duplicate. […]
(also on this page, place not known: >4000; Cpd2Cpd2 #)"$"C"#"*")*$*C ,V4:- 89:/1239 .0,;902<=:939:>=R?T !"#$#" (%$$ (%C" #)"$"C"#"*")*$*C -45665 -4TT8V ,V4:- 84;66L<-,V T-!=> ,?4?V V4-;VL<-,? -4-:?5T ,848; ?4T-?L<-,8 89:/1239 .0,;902<=:939:>=R?T FFFFFSB#T89: FFFFFSB#T89: FFFFFa+#-++GFB2FC-++CB$ FFFFFbFGF4D-+C FFFFF!4$FB2F!F4D-+G FFFFFiFB2FMF3DE4+G FFFFFiFkF3DE4+GFDLDEdl+C I9em:m rrr 9 :eosmX :e:snst o o Ise::::: I9e::::: :etpoooomX :esnnsmqmX :enst9mmqo :estm9XpoX Lamin β-Actin Progerin Relative progerin levelsin thesoluble fraction Relative levelsof denaturedprogerin [Cpd2, Relative progerin signal intensityvs IgG Cpd2 [Cpd2]=10 [Cpd2]=25 AbundanceRatio Veh Cpd2 -Log10 (p value)) […]
buffer containing 2.5% β-mercaptoethanol, and heated at 95 °C for 5 min prior to magnetic separation and loading of supernatants onto SDS -PAGE gels. Input lysates (~30 µg) were prepared in parallel as Western blot controls.
14. Cellular thermal shift assay.
Progeroid mouse fibroblasts (LmnaG609G/G609G) were seeded (2x10^6 cells) in 100 mm dishes 24 h before the experiment. Next day, cells were first washed with PBS and then incubated with the proteasome inhibitor (S)-MG132 (20 µM) for 2 h at 37 °C and 5%
CO2. Then, the cells were incubated with compound 2 at the corresponding concentration or with vehicle for 60 min at 37 °C and 5% CO2. Cells were then washed with PBS, detached by treatment with trypsin, and collected by centrifugation at 250g and 25 °C for 5 min, washed with PBS and resuspended in PBS in 0.2 mL microtubes. Then, homogenates or cells were transferred to PCR tubes and heat-shocked for 3 min at the appropriate temperature (37 to 61 °C) followed by rapid cooling to 25 °C using a SensoQuest LabCycler Thermocycler (Progen Scientific Ltd). Igepal CA-630 was then added to the samples (final concentration of 1 % v/v), and the samples were thoroughly mixed and denatured by three cycles of freezing/thawing (immersion in liquid nitrogen followed by fast thawing). […]

[2] = Stability in human serum; format: in vitro ADME
From the text: TABLE 1 Pharmacokinetic parameters of PROTAC 2. | column: Stability (hours) ^b / h‐serum

CC1(C)Oc2cc3oc(=O)ccc3cc2C[C@@H]1OC(=O)CCCCCNc1cccc2c1C(=O)N(C1CCC(=O)NC1=O)C2=O (some centres unmarked) [compound 2]
IC50 ([1]; CETSA, isothermal at 53 °C, Lmna^G609G/G609G fibroblasts, read-out: binding affinity by isothermal dose‐response fingerprint (IC50)): 7 ± 1 µM
direct binding to progerin by cellular thermal shift assays ([1]; Lmna^G609G/G609G fibroblasts): direct binding between compound 2 and progerin
ΔTm at 10 µM ([1]; compound at 10 µM, read-out: DTm of progerin (thermal denaturation curve)): 0.7 ± 0.1 °C
ΔTm at 25 µM ([1]; compound at 25 µM, read-out: DTm of progerin (thermal denaturation curve)): 2 ± 0.3 °C
Stability (hours) h‐serum [2]: >24 h
